Results reported in US5723580A, “Ketomethylene group-containing aldehyde cysteine and serine protease inhibitors” (Cephalon, Inc., priority 1996, dated 1998).

What was measured:
Assay type in all cases: biochemical
Calpain I = biological target: T1, Calpain I (Homo sapiens, UniProt P07384); assay: Inhibition of calpain I activity (fluorescence, Succ-Leu-Tyr-MNA substrate hydrolysis); settings: 0.2 mM Succ-Leu-Tyr-MNA, pH 7.5
T1 construct: made in house
T1 sequence (P07384 1-714): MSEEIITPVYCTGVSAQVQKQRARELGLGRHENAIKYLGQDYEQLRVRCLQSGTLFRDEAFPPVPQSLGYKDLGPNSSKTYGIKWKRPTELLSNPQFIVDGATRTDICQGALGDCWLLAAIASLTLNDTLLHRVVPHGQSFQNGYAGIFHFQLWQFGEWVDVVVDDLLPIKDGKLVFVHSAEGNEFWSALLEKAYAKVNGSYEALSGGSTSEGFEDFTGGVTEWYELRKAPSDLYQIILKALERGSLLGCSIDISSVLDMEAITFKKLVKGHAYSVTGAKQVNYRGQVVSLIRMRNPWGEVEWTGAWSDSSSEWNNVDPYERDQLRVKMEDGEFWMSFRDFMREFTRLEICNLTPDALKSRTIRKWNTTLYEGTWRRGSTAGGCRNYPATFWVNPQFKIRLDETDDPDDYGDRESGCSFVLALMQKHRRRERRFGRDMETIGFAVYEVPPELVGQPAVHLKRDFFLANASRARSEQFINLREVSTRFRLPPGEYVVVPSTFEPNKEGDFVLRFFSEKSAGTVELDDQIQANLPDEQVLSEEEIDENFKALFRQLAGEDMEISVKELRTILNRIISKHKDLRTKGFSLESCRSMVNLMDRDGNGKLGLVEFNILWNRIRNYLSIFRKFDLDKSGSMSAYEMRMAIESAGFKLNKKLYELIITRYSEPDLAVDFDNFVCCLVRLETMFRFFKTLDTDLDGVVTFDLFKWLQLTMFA
T1 sequence (P04632 1-268 partner): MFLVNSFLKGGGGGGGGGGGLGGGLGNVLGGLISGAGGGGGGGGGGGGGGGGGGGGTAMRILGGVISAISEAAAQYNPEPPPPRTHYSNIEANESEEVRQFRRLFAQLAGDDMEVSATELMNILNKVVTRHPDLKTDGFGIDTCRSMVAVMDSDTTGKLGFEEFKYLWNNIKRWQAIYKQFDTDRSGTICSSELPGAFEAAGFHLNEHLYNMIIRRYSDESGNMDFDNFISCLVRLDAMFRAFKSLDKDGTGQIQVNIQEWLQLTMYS
Procedure: (§1) To evaluate inhibitory activity, stock solutions (40 times concentrated) of each compound to be tested were prepared in 100% anhydrous DMSO and 5 μL of each inhibitor preparation were aliquoted into each of three wells of a 96-well plate. Calpain I, prepared by a modification of the method of W. J. Lee et al. (Biochem. Internatl. 22: 163-171 (1990)), was diluted into assay buffer (i.e., 50 mM Tris, 50 mM NaCl, 1 mM EDTA, 1 mM EGTA, and 5 mM-mercaptoethanol, pH 7.5 including 0.2 mM Succ-Leu-Tyr-MNA) and 175 μL aliquoted into the same wells containing the independent inhibitor stocks as well as to positive control wells containing 5 μL DMSO, but no compound. To start the reaction, 20 μL of 50 mM CaCl2 in assay buffer was added to all wells of the plate, excepting three, which were used as background signal baseline controls. Substrate hydrolysis was monitored every 5 minutes for a total of 30 minutes using a Fluoroskan II fluorescence plate reader. Substrate hydrolysis in the absence of inhibitor was linear for up to 15 minutes.
(§2) Inhibition of calpain I activity was calculated as the percent decrease in the rate of substrate (S) hydrolysis in the presence of inhibitor (I) relative to the rate in its absence (o). […] The results were plotted as % inhibition versus log inhibitor concentration and the IC50 was calculated from linear regression of the data.

thrombin = assay: Inhibition of thrombin (Bz-Phe-Val-Arg-AMC substrate); settings: @10 uM; 25 μM Bz-Phe-Val-Arg-AMC, pH 7.5
cathepsin B = assay: Inhibition of cathepsin B activity (Cbz-Phe-Arg-AMC substrate); settings: @1 uM; 0.1 mM Cbz-Phe-Arg-AMC, pH 6.0
Procedure: as §1, with “To start the reaction, 20 μL of 50 mM CaCl2 in assay buffer was added to all wells of the plate, excepting three, which were used as background signal baseline controls.” left out, “Substrate hydrolysis in the absence of inhibitor was linear for up to 15 minutes.” left out
as §2
(§3) Additionally, the order of reagents added to the plate was altered because both enzymes are constitutively active. […] Substrate hydrolysis was monitored using a Fluoroskan II (ex=390 nm; em=460 nm).

α-chymotrypsin = assay: Inhibition of α-chymotrypsin (Succ-Ala-Ala-Pro-Phe-AMC substrate); settings: @10 uM; 0.03 mM Succ-Ala-Ala-Pro-Phe-AMC, pH 7.5
Procedure: as §1, with “To start the reaction, 20 μL of 50 mM CaCl2 in assay buffer was added to all wells of the plate, excepting three, which were used as background signal baseline controls.” left out, “Substrate hydrolysis in the absence of inhibitor was linear for up to 15 minutes.” left out
Additionally, because α-chymotrypsin is not a calcium sensitive enzyme and is constitutively active, following addition of inhibitor stocks to the 96 well plates, 100 μl of a 2-fold concentrated stock of enzyme in dilution buffer was first added and the reaction started by addition of 100 μl of a 2-fold concentrated stock of substrate in assay buffer. Substrate hydrolysis was monitored every 5 minutes up to 30 minutes using a Fluoroskan II ([…]). […]

cathepsin L = assay: Inhibition of cathepsin L activity (Cbz-Phe-Arg-AMC substrate); settings: @1 uM; 0.006 mM Cbz-Phe-Arg-AMC, pH 6.0
Procedure: as §1, with “To start the reaction, 20 μL of 50 mM CaCl2 in assay buffer was added to all wells of the plate, excepting three, which were used as background signal baseline controls.” left out, “Substrate hydrolysis in the absence of inhibitor was linear for up to 15 minutes.” left out
as §2, §3

With CC(C)CC(CC(=O)[C@H](CC(C)C)NC(=O)OCc1ccccc1)C(=O)N[C@H](C=O)CC(C)C (stereo partly drawn) [compound 7, Z-Leu-Psi[COCH2 ]Leu-Leu-H] the IC50 (Calpain I) was 12 nM, the “Thrombin % I” value (thrombin) was 0% and the “Cat B % I” value (cathepsin B) was 97%. For the same compound, the “Chymotrypsin % I” value (α-chymotrypsin) was 53% and the “Cat L % I” value (cathepsin L) was 100%.
